Test results published in US20090197853A1, “METHODS AND COMPOSITIONS OF TREATING CANCER” (priority 2005, published 2009).
Entries after “also recorded” stand apart in the source; their conditions may differ.

Tests used:
[1] = system: A549 human lung cancer cells; assay: Gene expression profiling on Affymetrix U133A microarrays, plateau phase A549 cultures; assay type: cell-based; settings: 50 μM MGd
Protocol: Methods: A549 human lung cancer cells (6.5×10^5 cells per T-162 flask in 45 mL complete RPMI 1640 medium) were seeded 10 days prior to treatment of non-cycling plateau phase cultures with MGd. At 4, 12, or 24 hours prior to RNA isolation, MGd (50 μM final concentration) or control (5% mannitol) solution was added to the cultures. Each time course experiment was performed in triplicate. After incubation, all cultures were washed once with PBS and total RNA was subjected to analysis on Affymetrix U133A microarrays, designed to interrogate the relative abundance of over 15,000 human genes.
We used Microarray Suite version 5.0 software (Affymetrix) to generate raw gene expression scores and normalized the relative hybridization signal from each experiment. All gene expression scores were set to a minimum value of one hundred in order to minimize noise associated with less robust measurements of rare transcripts. The permutation-based significance analysis of microarrays (SAM) was used to determine genes differentially expressed in response to MGd treatment compared to the control 5% mannitol-treated cultures (0.125% final) at each time point. We report all genes at least 2-fold differentially expressed with a less than a 1% False Discovery Rate (FDR) in response to MGd treatment (FIG. 10).

[2] = system: metallothionein gene family members and ZnT1; assay: Northern blot analysis, A549 cultures; assay type: cell-based, human; settings: for Metallothionein transcript levels: A549, 24 hours, 50 μM MGd, Zn(OAc)2 100 μM, CdCl2 50 μM, FIG. 2B
Protocol: (§1) Methods: Northern Blot Analysis—Plateau phase cultures of A549 cells were prepared as described above, except that T-25 flasks were used, and the number of cells initially plated scaled accordingly. Cultures were treated with 50 μM MGd, 5 μM Gd(OAc)3 or 5% mannitol for 4 hours, whereupon cultures were washed twice with PBS and RNA harvested as above. Alternatively, 7-day plateau phase A549 or PC3 cultures were treated with 50 μM MGd, 50-100 μM Zn(OAc)2, 50 μM CdCl2 or 5% mannitol for 24 hours (A549) or 4 hours (PC3) prior to washing and RNA analysis. Exponential phase Ramos cultures were treated for 6 hours. Northern blots were conducted and analyzed. Radio labeled metallothionein probe, designed to bind to a 113-bp region of 3′-UTR sequences from multiple metallothionein gene family members, was generated using 5′-[…]-3′ (forward) and 5′-[…]-3′ (reverse) PCR primers and the NEBlot kit (New England Biolabs, Inc.). Radio labeled ZnT1 probe was generated in a similar fashion using 5′-[…]-3′ (forward) and 5′-[…]-3′ (reverse) primers.

[3] = system: metallothionein gene family members and ZnT1; assay: Northern blot analysis, PC3 cultures; assay type: cell-based; settings: PC3, 4 hours
Protocol: as §1

[4] = system: metallothionein gene family members and ZnT1; assay: Northern blot analysis, Ramos cultures; assay type: cell-based; settings: 6 hours
Protocol: as §1

[5] = HPLC analysis of MGd stability in medium from plateau phase cultures; assay type: physicochemical; settings: after 24 hours
Protocol: Results: Studies were performed to determine whether the metallothionein transcript up-regulation observed in the microarray analysis could be a consequence of free gadolinium(III) cation, released from MGd into the cell culture medium. […] Since the microarray analysis indicated strong transcript up-regulation after 4 hours of treatment with drug, this time interval was selected for further investigation of RNA transcript levels. RNA was harvested from plateau phase cultures treated with control vehicle, 50 μM MGd, or 5 μM Gd(OAc)3 for 4 hours. […] Thus, even assuming a 10% loss of drug over the initial 4 hour incubation period, the resulting release of Gd(III) ion into the culture medium would be insufficient to induce the observed metallothionein and ZnT1 transcript levels.

Ramos cells = assay: Gene expression profiling on Human Genome U133 Plus 2.0 Arrays, Ramos cultures; assay type: cell-based; settings: 4 hours
Protocol: Methods: Gene Expression Profiling—MGd (10 μM), Zn(OAc)2 (25 or 50 μM, the combinations, or control (5% mannitol) solution were added to Ramos cultures. Each treatment was performed in triplicate. After 4 hours of incubation, all cultures were washed twice with 0.5% BSA in HBSS and total RNA was isolated and subjected to analysis on Human Genome U133 Plus 2.0 Arrays (Affymetrix, Santa Clara, Calif.). Microarray Suite version 5.0 software (Affymetrix) was used to generate raw gene expression scores and normalize the relative hybridization signal from each experiment. All gene expression scores were set to a minimum value of fifty in order to minimize noise associated with less robust measurements of rare transcripts. Both the parametric Student's t-test and the permutation-based significance analysis of microarrays (SAM) were used to determine genes differentially expressed in treatment versus control groups.

[6] = system: PC3 prostate cancer cells; assay: Cell viability by propidium iodide exclusion, PC3; assay type: cell-based
Protocol: Methods: Cellular Viability—Cell viability was determined by using propidium iodide (PI) flow cytometric analysis. Cells from plateau phase cultures grown in T-25 flasks were harvested as described above, except that cells present in the growth medium and wash solution were isolated by centrifugation and included in the analysis. Cells were resuspended in 1 mL PBS, an aliquot of 3×10^5 cells transferred to a 4 mL tube, and the cells isolated by centrifugation. Cell pellets were resuspended in PBS supplemented with 2 μg/mL propidium iodide (Sigma), incubated for 5 minutes at ambient temperature, and subjected to flow cytometric analysis.

Thioredoxin reductase = settings: plateau phase PC3 cultures
Protocol: Methods: Lipoate Reduction. Thioredoxin reductase activity was assessed by measuring the rate of lipoate reduction. In brief, A549 or PC3 cells (10,000 cells/well) were plated on 96-well plates and allowed to adhere overnight and grow two additional days until confluent. Cells were treated with MGd, zinc, or 5% mannitol for 2-4 hours, as indicated. Medium was removed, cells were washed with Hanks Balanced Salt Solution (HBSS), and a solution of 5 mM lipoic acid and 1 mM 5,5′-dithiobis(2-nitrobenzoic acid) in HBSS (100 μL/well) was added. Plates were incubated at ambient temperature in the dark. At chosen time intervals, plate absorbance was measured at 405-650 nm. Plate absorbances were normalized to wells containing neither exogenous zinc nor texaphyrin complex to allow plate-to-plate comparison. In some experiments, L-buthionine-[S,R]-sulfoximine (BSO, 100 μM) was added 24 hours prior to MGd or zinc treatment, to inhibit any contribution to lipoate reduction made by glutathione-dependent pathways (28). Actinomycin D (2.5 μg/mL) or cycloheximide (10 μg/mL), where present, was added 1 hour prior to texaphyrin or zinc treatment. Viability was checked on parallel plates using the tetrazolium dye 3-(4,5-dimethylthiazol-2-yl)-5-(3-carboxymethoxyphenyl)-2-(4-sulfophenyl)-2H-tetrazolium (MTS) following the manufacturers protocol (Promega Corp.).

[7] = system: acute promyelocytic leukemia line (HL60); settings: 50 to 100 μM zinc
Protocol: Cellular Proliferation—The proliferation of exponential phase cultures was assessed by colorimetric assay. In brief, 2×10^5 suspension cells per well were seeded on 96-well V-bottom microtiter plates. Stock solutions of control vehicle, MGd or Zn(OAc)2 in medium were added and plates were incubated at 37° C. under a 5% CO2/95% air atmosphere. After 24 hours, medium was replaced with fresh medium. After 2 additional days, medium was exchanged with fresh medium (150 μL/well) supplemented with 3-(4,5-dimethylthiazol-2-yl)-2,5-diphenyltetrazolium bromide (MTT, 0.5 mg/mL, Sigma Biochemical, St. Louis, Mo.). Plates were incubated at 37° C. and viable cells measured.

Protocol for A549 cells: Methods: Cellular Viability. Cell viability was determined by using propidium iodide (PI) flow cytometric analysis. Cells from plateau phase cultures grown in T-25 flasks were harvested as described above, except that cells present in the growth medium and wash solution were isolated by centrifugation and included in the analysis. Cells were resuspended in 1 mL PBS, an aliquot of 3×10^5 cells transferred to a 4 mL tube, and the cells isolated by centrifugation. Cell pellets were resuspended in PBS supplemented with 2 μg/mL propidium iodide (Sigma), incubated for 5 minutes at ambient temperature, and subjected to flow cytometric analysis. Flow cytometry was performed on a FACSCalibur instrument and data were analyzed using the CellQuest Pro software package (BD Biosciences).

Row | SMILES | hbc647 transcript (likely 3′-UTR of ZnT1) ([1]; all three time points) | Metallothionein isoform transcripts (microarray) ([1]; all time points) | Metallothionein transcript levels [2] | Induction of metallothionein gene family members and ZnT1 (Northern blot) ([2]; A549 plateau phase, 4 hours, 50 μM MGd or 5 μM Gd(OAc)3) | Expression of metallothionein family members and ZnT1 [3] | Expression of metallothionein family members and ZnT1 [4] | Apparent loss of drug in medium (HPLC) [5] [%] | MTF-1 regulated genes incl. metallothionein and zinc transporter family transcripts (Ramos cells) | Effect of MGd on the cytotoxicity of Zn(OAc)2 (A549 cells) | Metallothionein transcript levels ([2]; listed as zinc) | Increased cell death (propidium iodide exclusion) ([6]; PC3, within 48 hr, at 100 μM zinc) [fold] | Cell viability ([6]; plateau phase PC3, after 24 hr) | Lipoate reduction (Thioredoxin reductase) | Proliferation [7]
1 | CC(=O)[O-].CC(=O)[O-].CCc1c(CC)c2cc3nc(cnc4cc(OCCOCCOCCOC)c(OCCOCCOCCOC)cc4ncc4nc(cc1[n-]2)C(CCCO)=C4C)C(C)=C3CCCO.O.[Gd+3] [MGd, Motexafin gadolinium] | up-regulated | up-regulation | raised; also recorded: significant increase | confirmed the induction; also recorded: induced | increased | increased | 4 | up-regulation of MTF-1 regulated genes | potentiated | – | – | – | – | –
2 | CC(=O)[O-].CC(=O)[O-].[Zn+2] [Zn(OAc)2, Zinc acetate] | – | – | significant increase | – | – | – | – | – | – | raised | 2 | little effect on cell viability | inhibited at lower concentrations of zinc | but not in an acute promyelocytic leukemia line (HL60)
